Experimental findings from ChEMBL document CHEMBL1275532, “Potential for hepatitis C virus resistance to nitazoxanide or tizoxanide” (Antimicrob Agents Chemother, 2008) are described below.

Data set [1] deals with Hepatitis C virus. In words: Antiviral activity against HCV genotype 1b in RP7 replicon cell after 4 days by blot hybridization analysis. Format: functional, organism-based, Hepacivirus hominis. To be noted: 96 h. (In antiviral work, replicon cells carry a viral genome segment that copies itself.)
Data set [2] concerns Hepatitis C virus. As to the kind of experiment: Antiviral activity against HCV genotype 1b in NTZ-11 replicon cell after 4 days by blot hybridization analysis. The data set is classed as functional, organism-based, Hepacivirus hominis. To be noted: NTZ-11, 96 h.
The test system of data set [3] is Hepatitis C virus. In words: Antiviral activity against HCV genotype 1b in TIZ-9 replicon cell after 4 days by blot hybridization analysis. The data set is classed as functional, organism-based, Hepacivirus hominis. The note with it: TIZ-9, 96 h.
Data set [4] in a line: Cytotoxicity against human RP7 cell harboring HCV genotype 1b after 4 days by neutral red dye uptake assay. Format: cell-based. The note with it: RP7 cells harboring HCV genotype 1b.
A short description of data set [5]: Cytotoxicity against human NTZ-11 cell harboring HCV genotype 1b after 4 days by neutral red dye uptake assay. Format: cell-based. The note with it: NTZ-11 cells harboring HCV genotype 1b.
The nature of data set [6]: Cytotoxicity against human TIZ-9 cell harboring HCV genotype 1b after 4 days by neutral red dye uptake assay. The data set is classed as cell-based. To be noted: TIZ-9 cells harboring HCV genotype 1b.
A short description of data set [7]: Selectivity Index, ratio of CC50 for RP7 cell harboring HCV genotype 1b to EC50 for HCV genotype 1b in RP7 replicon cell.
Data set [8] in a line: Selectivity Index, ratio of CC50 for NTZ-11 cell harboring HCV genotype 1b to EC50 for HCV genotype 1b in NTZ-11 replicon cell.
Data set [9] can be described thus: Selectivity Index, ratio of CC50 for TIZ-9 cell harboring HCV genotype 1b to EC50 for HCV genotype 1b in TIZ-9 replicon cell.
Data set [10] relates to Hepatitis C virus. As to the kind of experiment: Antiviral activity against HCV genotype 1b obtained from RP7 cells infected in Huh7.5 cell assessed as viral-induced colony formation efficiency at 10 uM after 10 to 14 days in presence of 125 ug/ml G418. Format: functional, Hepacivirus hominis.
The test system of data set [11] is Hepatitis C virus. As to the kind of experiment: Antiviral activity against HCV genotype 1b obtained from NTZ-11 cells infected in Huh7.5 cell assessed as viral-induced colony formation efficiency at 10 uM after 10 to 14 days in presence of 125 ug/ml G418. Format: functional, Hepacivirus hominis.
The subject of data set [12] is Hepatitis C virus. In words: Antiviral activity against HCV genotype 1b obtained from TIZ-9 cells infected in Huh7.5 cell assessed as viral-induced colony formation efficiency at 10 uM after 10 to 14 days in presence of 125 ug/ml G418. The data set is classed as functional, Hepacivirus hominis.
The subject of data set [13] is Hepatitis C virus. In words: Antiviral activity against HCV genotype 1a in replicon system. The data set is classed as functional, organism-based, Hepacivirus hominis. The note with it: subtype 1a.
The test system of data set [14] is Hepatitis C virus. In words: Antiviral activity against HCV genotype 1b in replicon system. Format: functional, organism-based, Hepacivirus hominis.
The test system of data set [15] is Hepatitis C virus. As to the kind of experiment: Antiviral activity against HCV genotype 1b obtained from RP7 cells infected in Huh7.5 cell assessed as viral-induced colony formation efficiency at 1 uM after 10 to 14 days in presence of 125 ug/ml G418. Format: functional, Hepacivirus hominis.
Data set [16] has as its system Hepatitis C virus. In words: Antiviral activity against HCV genotype 1b obtained from NTZ-11 cells infected in Huh7.5 cell assessed as viral-induced colony formation efficiency at 1 uM after 10 to 14 days in presence of 125 ug/ml G418. The data set is classed as functional, Hepacivirus hominis.
Data set [17] concerns Hepatitis C virus. In words: Antiviral activity against HCV genotype 1b obtained from TIZ-9 cells infected in Huh7.5 cell assessed as viral-induced colony formation efficiency at 1 uM after 10 to 14 days in presence of 125 ug/ml G418. Format: functional, Hepacivirus hominis.

Take `C[C@@]1(O)[C@H](O)[C@@H](CO)O[C@H]1n1ccc(N)nc1=O`: the EC50 (in general, the concentration at which the effect is half-maximal) with Hepatitis C virus [1] was 2 µM; in the data set on Hepatitis C virus [2] it was 1.9 µM; in the data set with Hepatitis C virus [3] it was 2.2 µM. Besides, the EC90 (commonly the concentration needed for an effect of 90%) in the data set with Hepatitis C virus [1] was determined as 9 µM; with Hepatitis C virus [2], 6.1 µM; in the data set with Hepatitis C virus [3] it was 8.9 µM. For the same molecule, the CC50 at 96 h in data set [4], in [5] and in [6] was greater than 300 µM throughout. The “Ratio CC50/EC50” value is given as greater than 150 in data set [7], greater than 158 in data set [8] and greater than 136 in data set [9]. Moreover, the figures for the Activity in the data set on Hepatitis C virus [10], in the data set with Hepatitis C virus [11] and in the data set with Hepatitis C virus [12] were 10%, 13% and 9%, respectively.
For `CC(=O)Oc1ccccc1C(=O)Nc1ncc([N+](=O)[O-])s1` [NITAZOXANIDE], the EC50 amounted to 0.13 µM in the data set on Hepatitis C virus [13], 0.16 µM in the data set on Hepatitis C virus [1], 1.2 µM with Hepatitis C virus [2] and 1.5 µM with Hepatitis C virus [3]. Further, the EC90 in the data set with Hepatitis C virus [1] is 1.2 µM; in the data set with Hepatitis C virus [2], 17 µM; in the data set with Hepatitis C virus [3] it was 26 µM. In addition, the CC50 – broadly, the concentration that lowers cell viability or growth by half – at 96 h stood at 38 µM in data set [4], 68 µM in [5] and 97 µM in data set [6]. Further, the “Ratio CC50/EC50” value in [7] is given as 238; in data set [8], 57; in [9], 65.
`NC(=O)c1ncn([C@@H]2O[C@H](CO)[C@@H](O)[C@H]2O)n1` [RIBAVIRIN]: the EC50 in the data set on Hepatitis C virus [1] came out at 69 µM; with Hepatitis C virus [2], 47 µM; in the data set with Hepatitis C virus [3], 52 µM. For the same molecule, the values for the EC90 with Hepatitis C virus [1], with Hepatitis C virus [2] and in the data set on Hepatitis C virus [3] were 122 µM, 107 µM and 123 µM, respectively. Further, the figures for the CC50 at 96 h in [4], in data set [5] and in [6] were 77 µM, 66 µM and 95 µM, respectively. Also, the “Ratio CC50/EC50” value was 1.1 in [7], 1.4 in [8] and 1.8 in [9].
In the case of `O=C(Nc1ncc([N+](=O)[O-])s1)c1ccccc1O` [TIZOXANIDE], the EC50 in the data set on Hepatitis C virus [14] was determined as 0.15 µM; with Hepatitis C virus [1] it was 0.15 µM; in the data set with Hepatitis C virus [2] it was 1.1 µM; with Hepatitis C virus [3], 2 µM. The EC90 in the data set with Hepatitis C virus [1] worked out at 0.94 µM; in the data set on Hepatitis C virus [2], 18 µM; in the data set on Hepatitis C virus [3], 35 µM. Further, the CC50 at 96 h in data set [4] is 25 µM; in data set [5], 74 µM; in [6], 92 µM. Also, the results for the “Ratio CC50/EC50” value in data set [7], in data set [8] and in data set [9] were 167, 67 and 46, respectively. Also, the Activity with Hepatitis C virus [15] worked out at 7%; in the data set with Hepatitis C virus [10], 0%; in the data set with Hepatitis C virus [16], 8%; in the data set with Hepatitis C virus [11] it was 0%; with Hepatitis C virus [17], 12%; in the data set with Hepatitis C virus [12], 0%.
